Earlier results, collected in patent US20240325452A1, “METHODS AND COMPOSITIONS FOR DREADD-ACTIVATABLE CELLS FOR NEURAL REPAIR” (Drexel University, priority 2023, published 2024).
Each block holds one molecule with its values, some of them ahead of it.

Assays:
[1] = molecular target: hM3Dq (Homo sapiens, UniProt P20309, A239G/Y149C); settings: hM3 with two point mutations
[2] = it has been reported
[3] = test system: hM3Dq and hM4Di DREADDs; settings: marketed ligands, active in vivo

hM3Dq, sequence (P20309 whole entry Y149C/A239G): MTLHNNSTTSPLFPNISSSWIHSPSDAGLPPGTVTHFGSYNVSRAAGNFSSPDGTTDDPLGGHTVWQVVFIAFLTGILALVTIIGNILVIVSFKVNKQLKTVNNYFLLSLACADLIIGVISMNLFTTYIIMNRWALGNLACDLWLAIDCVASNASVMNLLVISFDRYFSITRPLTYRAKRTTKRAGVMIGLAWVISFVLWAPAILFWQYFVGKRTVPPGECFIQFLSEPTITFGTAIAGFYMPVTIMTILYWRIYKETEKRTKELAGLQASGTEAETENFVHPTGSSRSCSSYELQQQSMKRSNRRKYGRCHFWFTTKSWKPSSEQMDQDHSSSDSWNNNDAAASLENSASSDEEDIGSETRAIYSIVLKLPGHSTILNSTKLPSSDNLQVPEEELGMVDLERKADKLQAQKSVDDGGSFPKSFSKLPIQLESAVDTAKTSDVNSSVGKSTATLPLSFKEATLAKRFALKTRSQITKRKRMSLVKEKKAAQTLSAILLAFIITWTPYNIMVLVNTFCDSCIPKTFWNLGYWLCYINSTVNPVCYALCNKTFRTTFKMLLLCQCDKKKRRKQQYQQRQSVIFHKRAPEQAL

potency at mutant receptor [1]: nanomolar potency
Compound: C[N+]1([O-])CCN(C2=Nc3cc(Cl)ccc3Nc3ccccc32)CC1 [CNO, clozapine N-oxide]

bioavailability, pharmacokinetic properties and brain penetrability [2]: excellent
Compound: c1ccc2c(c1)N=C(N1CCNCC1)c1ccccc1N2 [Compound 21]
reverse metabolism to clozapine [2]: does not undergo reverse metabolism to clozapine

Compound: CCN1CCN(C2=Nc3cc(Cl)ccc3Nc3c(F)cccc32)CC1 [JHU37160]
potency and affinity [3]: high potency and affinity
